Source: ChEMBL document CHEMBL4602694, “Suppression of Drug-Resistant Non-Small-Cell Lung Cancer with Inhibitors Targeting Minichromosomal Maintenance Protein” (J Med Chem, 2020)
Calls of active or inactive are those of the source. The rule behind the calls is not given here.

Tests used:
NCI-H1975 = assay: Antitumor activity against human NCI-H1975 cells xenografted in athymic nude BALB/c mouse assessed as tumor growth at 4 mg/kg, ip administered for 4 weeks (reference value: 1217 +/- 516.6 cu.mm); format: functional
[1] = biological target: DNA replication licensing factor MCM2 (Homo sapiens) (UniProt P49736); assay: Induction of ubiquitination of MCM2 in human NCI-H1975 cells in presence of MG132 incubated for 48 hrs followed by MG132 addition and measured after 12 hrs by immunoblot analysis (reference value: 1.4); format: cell-based
Chain of DNA replication licensing factor MCM2 (Homo sapiens) (P49736 whole entry): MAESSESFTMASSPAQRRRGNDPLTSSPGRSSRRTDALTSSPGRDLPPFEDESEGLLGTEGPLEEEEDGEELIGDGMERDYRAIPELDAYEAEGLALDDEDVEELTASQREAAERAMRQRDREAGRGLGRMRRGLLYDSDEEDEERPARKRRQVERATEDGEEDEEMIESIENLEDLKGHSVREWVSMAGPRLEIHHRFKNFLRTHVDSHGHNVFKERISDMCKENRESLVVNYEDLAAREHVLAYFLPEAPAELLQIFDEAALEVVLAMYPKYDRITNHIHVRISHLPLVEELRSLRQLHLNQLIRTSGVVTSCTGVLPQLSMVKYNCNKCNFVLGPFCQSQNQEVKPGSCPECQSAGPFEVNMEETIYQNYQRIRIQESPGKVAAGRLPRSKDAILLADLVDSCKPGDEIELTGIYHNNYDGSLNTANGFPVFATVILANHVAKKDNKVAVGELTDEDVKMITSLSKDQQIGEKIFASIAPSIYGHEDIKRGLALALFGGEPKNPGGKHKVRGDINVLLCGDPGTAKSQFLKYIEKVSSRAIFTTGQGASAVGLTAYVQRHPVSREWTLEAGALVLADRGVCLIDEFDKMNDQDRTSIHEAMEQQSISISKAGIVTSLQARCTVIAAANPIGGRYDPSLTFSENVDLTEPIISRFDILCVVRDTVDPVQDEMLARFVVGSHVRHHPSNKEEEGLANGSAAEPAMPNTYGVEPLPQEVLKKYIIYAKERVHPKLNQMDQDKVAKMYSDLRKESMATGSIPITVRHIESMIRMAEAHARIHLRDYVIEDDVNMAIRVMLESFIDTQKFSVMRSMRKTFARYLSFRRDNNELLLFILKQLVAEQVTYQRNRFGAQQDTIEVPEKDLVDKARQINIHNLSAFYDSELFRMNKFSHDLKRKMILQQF

[2] = biological target: T1, DNA replication licensing factor MCM6 (Homo sapiens) (UniProt Q14566); assay: Induction of ubiquitination of MCM6 in human NCI-H1975 cells at 140 nM in presence of MG132 incubated for 48 hrs followed by MG132 addition and measured after 12 hrs by immunoblot analysis; format: cell-based
T1 sequence (whole entry): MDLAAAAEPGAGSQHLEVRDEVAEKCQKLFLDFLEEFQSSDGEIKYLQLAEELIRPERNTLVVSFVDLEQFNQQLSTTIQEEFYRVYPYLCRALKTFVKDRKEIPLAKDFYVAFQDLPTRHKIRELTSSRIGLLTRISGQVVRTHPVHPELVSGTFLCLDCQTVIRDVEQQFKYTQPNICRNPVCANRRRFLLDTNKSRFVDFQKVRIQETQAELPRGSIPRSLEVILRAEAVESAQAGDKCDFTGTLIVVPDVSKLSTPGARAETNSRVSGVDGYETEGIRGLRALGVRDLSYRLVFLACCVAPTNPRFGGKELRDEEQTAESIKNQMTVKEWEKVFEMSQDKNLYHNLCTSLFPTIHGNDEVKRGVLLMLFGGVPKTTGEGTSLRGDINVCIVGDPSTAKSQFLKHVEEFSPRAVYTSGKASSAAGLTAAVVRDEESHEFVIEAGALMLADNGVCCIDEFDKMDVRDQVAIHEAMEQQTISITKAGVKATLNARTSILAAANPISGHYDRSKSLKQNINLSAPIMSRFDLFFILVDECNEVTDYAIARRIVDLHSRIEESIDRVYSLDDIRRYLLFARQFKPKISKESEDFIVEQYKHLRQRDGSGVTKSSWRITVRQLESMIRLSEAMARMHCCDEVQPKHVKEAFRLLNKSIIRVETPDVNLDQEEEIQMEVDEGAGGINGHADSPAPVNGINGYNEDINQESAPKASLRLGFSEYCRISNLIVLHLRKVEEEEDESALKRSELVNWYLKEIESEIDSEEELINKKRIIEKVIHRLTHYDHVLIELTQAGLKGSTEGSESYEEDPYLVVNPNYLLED

In the case of `Cc1oc2c(c1C(=O)NCCCn1ccnc1)C(=O)c1ccccc1C2=O`, the Activity (NCI-H1975) is reported as 518 mm3, the Activity [1] is reported as 1.6 and the Activity [2] is reported as “Active”.
